Measurements reported in US9156872B2, “2′-azido substituted nucleoside derivatives and methods of use thereof for the treatment of viral diseases” (priority 2011, dated 2015).

Each molecule was assayed on HCV replicon cells (assay: Cell-based HCV replicon assay (replicon RNA by Taqman real time PCR)). Details: HCV replicon 1b, cells harvested on day 3; read-out: 1b EC50.
`CCCOP1(=O)OC[C@H]2O[C@@H](n3ccc(=O)[nH]c3=O)[C@](C)(N=[N+]=[N-])[C@@H]2O1` (single isomer, unassigned) [Compound 566] was tested, and the EC50 was greater than 100000 nM.
`CC(C)OP1(=O)OC[C@H]2O[C@@H](n3ccc(=O)[nH]c3=O)[C@](C)(N=[N+]=[N-])[C@@H]2O1` (single isomer, unassigned) [Compound 564] showed an EC50 greater than 100000 nM.
Work on `C[C@@]1(N=[N+]=[N-])[C@@H]2OP(=O)(OC3CCCC3)OC[C@H]2O[C@H]1n1ccc(=O)[nH]c1=O` (single isomer, unassigned) [Compound 561] yielded an EC50 of 3100 nM.

Same assay, conditions: Hepatitis C virus, 72 h, HCV replicon 1b, cells harvested on day 3; read-out: 1b EC50
Work on `CCOc1nc(N)nc2c1ncn2[C@@H]1O[C@@H]2COP(=O)(OC3CCCC3)O[C@H]2[C@@]1(C)N=[N+]=[N-]` (stereo partly shown) [Compound 73] yielded an EC50 of 700 nM.
For `C[C@@]1(N=[N+]=[N-])[C@H](O)[C@@H](CO)O[C@H]1n1ccc(=O)[nH]c1=O` [Compound 4], the EC50 was greater than 100000 nM.

Same assay, conditions: Hepatitis C virus, 72 h, read-out: 1b EC50
`CCCCOC(=O)[C@H](C)NP(=O)(OC[C@H]1O[C@@H](n2cnc3c(OCC)nc(N)nc32)[C@](C)(N=[N+]=[N-])[C@@H]1O)Oc1ccc(Cl)c(Cl)c1` (stereo partly shown) [Compound 370] showed an EC50 of 10000 nM.
Work on `CCCCOC(=O)[C@H](C)NP(=O)(OC[C@H]1O[C@@H](n2cnc3c(OCC)nc(N)nc32)[C@](C)(N=[N+]=[N-])[C@@H]1O)Oc1ccc(Cl)cc1` (stereo partly shown) [Compound 368] yielded an EC50 of 80 nM.
For `CCCC(CCC)COC(=O)[C@H](C)NP(=O)(OC[C@H]1O[C@@H](n2ccc(N)nc2=O)[C@](C)(N=[N+]=[N-])[C@@H]1O)Oc1ccccc1` (stereo partly shown) [Compound 317], the EC50 was 39000 nM.
In the case of `COC(=O)[C@H](C)NP(=O)(OC[C@H]1O[C@@H](n2ccc(=O)[nH]c2=O)[C@](C)(N=[N+]=[N-])[C@@H]1O)Oc1ccc(Cl)cc1` (stereo partly shown) [Compound 50], the EC50 is reported as 4000 nM.
Molecule `CCOc1nc(N)nc2c1ncn2[C@@H]1O[C@H](COP(=O)(N[C@@H](C)C(=O)OC)Oc2ccccc2)[C@@H](O)[C@@]1(C)N=[N+]=[N-]` (single isomer, unassigned) [Compound 142] has an EC50 of 500 nM.
Work on `COC(=O)c1ccccc1OP(=O)(N[C@@H](C)C(=O)OC(C)C)OC[C@H]1O[C@@H](n2ccc(=O)[nH]c2=O)[C@](C)(N=[N+]=[N-])[C@@H]1O` (stereo partly shown) [Compound 219] yielded an EC50 of 22000 nM.
For `COC(=O)c1ccccc1OP(=O)(N[C@@H](C)C(=O)OC)OC[C@H]1O[C@@H](n2cnc3c(OC)nc(N)nc32)[C@](C)(N=[N+]=[N-])[C@@H]1O` (stereo partly shown) [Compound 223], the EC50 was 8800 nM.
`CC(C)OC(=O)[C@H](C)NP(=O)(OC[C@H]1O[C@@H](n2ccc(N)nc2=O)[C@](C)(N=[N+]=[N-])[C@@H]1O)Oc1ccccc1` (stereo partly shown) [Compound 22] gave an EC50 of 3100 nM.
Work on `COC(=O)[C@H](C)NP(=O)(OC[C@H]1O[C@@H](n2ccc(N)nc2=O)[C@](C)(N=[N+]=[N-])[C@@H]1O)Oc1ccc(Cl)cc1` (single isomer, unassigned) [Compound 185] yielded an EC50 of 2900 nM.
For `COc1nc(N)nc2c1ncn2[C@@H]1O[C@H](COP(=O)(N[C@@H](C)C(=O)OC(C)C)Oc2ccc(Cl)c(Cl)c2)[C@@H](O)[C@@]1(C)N=[N+]=[N-]` (stereo partly shown) [Compound 244], the EC50 was 6000 nM.
`CCOC(=O)[C@H](C)NP(=O)(OC[C@H]1O[C@@H](n2cnc3c(OCC)nc(N)nc32)[C@](C)(N=[N+]=[N-])[C@@H]1O)Oc1ccccc1Cl` (stereo partly shown) [Compound 349] was tested, and the EC50 was 2000 nM.
`CCOc1nc(N)nc2c1ncn2[C@@H]1O[C@H](COP(=O)(N[C@@H](C)C(=O)OC(C)C)Oc2ccc(F)cc2)[C@@H](O)[C@@]1(C)N=[N+]=[N-]` (stereo partly shown) [Compound 347] was tested, and the EC50 was 700 nM.
With `COc1nc(N)nc2c1ncn2[C@@H]1O[C@H](COP(=O)(N[C@@H](C)C(=O)OC(C)C)Oc2ccc(Cl)c(Cl)c2)[C@@H](O)[C@@]1(C)N=[N+]=[N-]` (single isomer, unassigned) [Compound 282] the EC50 was 5000 nM.
Molecule `CCOC(=O)[C@H](C)NP(=O)(OC[C@H]1O[C@@H](n2ccc(N)nc2=O)[C@](C)(N=[N+]=[N-])[C@@H]1O)Oc1ccc(Cl)cc1` (stereo partly shown) [Compound 198] has an EC50 of 600 nM.
`CCCCOC(=O)[C@H](C)NP(=O)(OC[C@H]1O[C@@H](n2cnc3c(OCC)nc(N)nc32)[C@](C)(N=[N+]=[N-])[C@@H]1O)Oc1cccc2ccccc12` (single isomer, unassigned) [Compound 171] was tested, and the EC50 was 500 nM.
With `CCOC(=O)[C@H](C)NP(=O)(OC[C@H]1O[C@@H](n2ccc(N)nc2=O)[C@](C)(N=[N+]=[N-])[C@@H]1O)Oc1ccccc1Cl` (stereo partly shown) [Compound 183] the EC50 was 3000 nM.
In the case of `CCOC(=O)[C@H](C)NP(=O)(OC[C@H]1O[C@@H](n2cnc3c(OC)nc(N)nc32)[C@](C)(N=[N+]=[N-])[C@@H]1O)Oc1ccc(Cl)cc1` (single isomer, unassigned) [Compound 238], the EC50 is reported as 1200 nM.

Same assay, conditions: read-out: 1b EC50
In the case of `C[C@H](NP(=O)(OC[C@H]1O[C@@H](n2ccc(N)nc2=O)[C@](C)(N=[N+]=[N-])[C@@H]1O)Oc1ccccc1)C(=O)OC1CCCCC1` (single isomer, unassigned) [Compound 338], the EC50 is reported as 26000 nM.
`CCOc1nc(N)nc2c1ncn2[C@@H]1O[C@H](COP(=O)(N[C@@H](C)C(=O)OC)Oc2ccc(Cl)cc2)[C@@H](O)[C@@]1(C)N=[N+]=[N-]` (single isomer, unassigned) [Compound 312] was tested, and the EC50 was 2200 nM.
`COC(=O)[C@H](C)NP(=O)(OC[C@H]1O[C@@H](n2ccc(=O)[nH]c2=O)[C@](C)(N=[N+]=[N-])[C@@H]1O)Oc1ccccc1Cl` (stereo partly shown) [Compound 236] showed an EC50 of 6400 nM.
`CCOc1nc(N)nc2c1ncn2[C@@H]1O[C@H](COP(=O)(N[C@@H](C)C(=O)OC(C)C)Oc2ccc(Cl)c(Cl)c2)[C@@H](O)[C@@]1(C)N=[N+]=[N-]` (single isomer, unassigned) [Compound 361] was tested, and the EC50 was 11200 nM.
Work on `COC(=O)[C@H](C)NP(=O)(OC[C@H]1O[C@@H](n2ccc(N)nc2=O)[C@](C)(N=[N+]=[N-])[C@@H]1O)Oc1ccccc1Cl` (single isomer, unassigned) [Compound 331] yielded an EC50 of 10000 nM.
`CCOC(=O)[C@H](C)NP(=O)(OC[C@H]1O[C@@H](n2cnc3c(OCC)nc(N)nc32)[C@](C)(N=[N+]=[N-])[C@@H]1O)Oc1ccccc1Cl` (single isomer, unassigned) [Compound 359] gave an EC50 of 3300 nM.
For `COC(=O)[C@H](C)NP(=O)(OC[C@H]1O[C@@H](n2ccc(=O)[nH]c2=O)[C@](C)(N=[N+]=[N-])[C@@H]1O)Oc1cccc2ccccc12` (single isomer, unassigned) [Compound 217], the EC50 was 2100 nM.
`CCOc1nc(N)nc2c1ncn2[C@@H]1O[C@H](COP(=O)(N[C@@H](C)C(=O)OC2CCC2)Oc2ccccc2)[C@@H](O)[C@@]1(C)N=[N+]=[N-]` (single isomer, unassigned) [Compound 362] showed an EC50 of 2600 nM.
`CCCCOC(=O)[C@H](C)NP(=O)(OC[C@H]1O[C@@H](n2cnc3c(OC)nc(N)nc32)[C@](C)(N=[N+]=[N-])C1O)Oc1ccccc1` (single isomer, unassigned) [Compound 263] was tested, and the EC50 was 1500 nM.
`CCOc1nc(N)nc2c1ncn2[C@@H]1O[C@H](COP(=O)(N[C@@H](C)C(=O)OC)Oc2ccc(Cl)cc2)[C@@H](O)[C@@]1(C)N=[N+]=[N-]` (single isomer, unassigned) [Compound 311] was tested, and the EC50 was 900 nM.
With `CCOc1nc(N)nc2c1ncn2[C@@H]1O[C@H](COP(=O)(N[C@@H](C)C(=O)OC(C)C)Oc2ccccc2)[C@@H](O)[C@@]1(C)N=[N+]=[N-]` (single isomer, unassigned) [Compound 165] the EC50 was 6200 nM.
`C[C@H](NP(=O)(OC[C@H]1O[C@@H](n2ccc(=O)[nH]c2=O)[C@](C)(N=[N+]=[N-])[C@@H]1O)Oc1ccccc1)C(=O)OCc1ccccc1` (single isomer, unassigned) [Compound 300] was tested, and the EC50 was 29000 nM.
Molecule `C[C@H](NP(=O)(OC[C@H]1O[C@@H](n2ccc(=O)[nH]c2=O)[C@](C)(N=[N+]=[N-])[C@@H]1O)Oc1ccccc1)C(=O)O[C@H](C)c1ccccc1` (single isomer, unassigned) [Compound 303] has an EC50 of 46900 nM.
Work on `COc1nc(N)nc2c1ncn2[C@@H]1O[C@H](COP(=O)(N[C@@H](C)C(=O)OC2CCCCC2)Oc2ccc(Cl)cc2)[C@@H](O)[C@@]1(C)N=[N+]=[N-]` (single isomer, unassigned) [Compound 273] yielded an EC50 of 2800 nM.
For `CCOC(=O)[C@H](C)NP(=O)(OC[C@H]1O[C@@H](n2cnc3c(OC)nc(N)nc32)[C@](C)(N=[N+]=[N-])[C@@H]1O)Oc1ccc(Cl)cc1` (single isomer, unassigned) [Compound 290], the EC50 was 800 nM.
With `CCCCOC(=O)[C@H](C)NP(=O)(OC[C@H]1O[C@@H](n2cnc3c(OC)nc(N)nc32)[C@](C)(N=[N+]=[N-])C1O)Oc1cccc2ccccc12` (single isomer, unassigned) [Compound 298] the EC50 was 100 nM.
Molecule `COC(=O)[C@H](C)NP(=O)(OC)OC[C@H]1O[C@@H](n2ccc(N)nc2=O)[C@](C)(N=[N+]=[N-])[C@@H]1O` (single isomer, unassigned) [Compound 346] has an EC50 greater than 100000 nM.
`COC(=O)[C@H](C)NP(=O)(OC[C@H]1O[C@@H](n2cnc3c(OC)nc(N)nc32)[C@](C)(N=[N+]=[N-])C1O)Oc1ccccc1` (single isomer, unassigned) [Compound 260] gave an EC50 of 3600 nM.
`CCOc1nc(N)nc2c1ncn2[C@@H]1O[C@H](COP(=O)(N[C@@H](C)C(=O)OC)Oc2ccccc2)[C@@H](O)[C@@]1(C)N=[N+]=[N-]` (single isomer, unassigned) [Compound 143] showed an EC50 of 600 nM.
In the case of `CCOc1nc(N)nc2c1ncn2[C@@H]1O[C@H](COP(=O)(N[C@@H](C)C(=O)OC(C)C)Oc2ccc(F)cc2)[C@@H](O)[C@@]1(C)N=[N+]=[N-]` (single isomer, unassigned) [Compound 365], the EC50 is reported as 1100 nM.
Work on `COc1nc(N)nc2c1ncn2[C@@H]1O[C@H](COP(=O)(N[C@@H](C)C(=O)OCC(C)C)Oc2ccccc2)C(O)[C@@]1(C)N=[N+]=[N-]` (single isomer, unassigned) [Compound 277] yielded an EC50 of 2700 nM.
`CCOC(=O)[C@H](C)NP(=O)(OC[C@H]1O[C@@H](n2cnc3c(OC)nc(N)nc32)[C@](C)(N=[N+]=[N-])[C@@H]1O)Oc1ccccc1` (stereo partly shown) [Compound 250] showed an EC50 of 700 nM.
With `COC(=O)[C@H](C)NP(=O)(OC[C@H]1O[C@@H](n2ccc(=O)[nH]c2=O)[C@](C)(N=[N+]=[N-])[C@@H]1O)Oc1cccc2ccccc12` (stereo partly shown) [Compound 235] the EC50 was 3 nM.
For `COc1nc(N)nc2c1ncn2[C@@H]1O[C@H](COP(=O)(N[C@@H](C)C(=O)OC(C)C)Oc2ccccc2)C(O)[C@@]1(C)N=[N+]=[N-]` (single isomer, unassigned) [Compound 253], the EC50 was 600 nM.
